The values that follow come from US20210395327A1, “Growth Hormone-Releasing Hormone Antagonists and Uses Thereof” (United States Government As Represented By The Department …, priority 2019, published 2021).

Entries after “also recorded” stand apart in the source; their conditions may differ. Non-standard residues stand in square brackets, D forms with d. Residues, ends and D or L forms follow the SMILES beside them. *: point of attachment. Phenylacetyl(2,3,4,5,6-F5) = O=C(Cc1c(F)c(F)c(F)c(F)c1F)*; Phe(F5) = N[C@@H](Cc1c(F)c(F)c(F)c(F)c1F)C(=O)O; hArg = N=C(N)NCCCC[C@H](N)C(=O)O; 12Ado = NCCCCCCCCCCCC(=O)O; Nle = CCCC[C@H](N)C(=O)O; Orn = NCCC[C@H](N)C(=O)O; Abu = CC[C@H](N)C(=O)O; PhAc = O=C(Cc1ccccc1)*

Experiment [1] relates to KATOIII stomach cancer cells. Nature of the experiment: In vitro cell viability, KATOIII. It is filed as cell-based, human. Conditions: antagonist 5 μM for 72 h, cell proliferation assay; MIA602 = 1. Put shortly: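 Cells grown to ~60% confluence, serum-starved 24 h in 0.5% FBS, then treated with antagonists at 1, 2.5 or 5 μM or vehicle (0.1% DMSO) in quintuplicate for 72 h, medium replaced every 48 h. Viability read by MTS-type CellTiter 96 AQueous One assay; expressed as inhibitory potency relative to MIA602.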

Experiment [2] concerns PANC-1 pancreatic cancer cells. Nature of the experiment: In vitro cell viability, PANC-1. The experiment is classed as cell-based, human. Conditions: antagonist 5 μM for 72 h, cell proliferation assay; MIA602 = 1. How it is done:
(§1) The inhibitory effects of the various synthesized GHRH antagonists were tested in cell proliferation assays in various human cancer cell lines including stomach cancer (KATOIII, N87), colon cancer (HT-29), urothelial cancer (J82, RT4), pancreatic cancer (PANC-1, CFPAC-1), prostatic cancer (PC3), breast cancer (MX-1, HCC1806), ovarian cancer (SK-OV-3, OVCAR-3) and lung cancer (HCC827, H460).
(§2) Cell culture. Human cancer cell lines including pancreatic (PANC-1 and CFPAC-1), lung (HCC827 and H460), stomach (NCI-N87 and KATOIII), urothelial (J82, RT4), prostatic (PC3), breast (MX-1 and HCC 1806), colorectal (HT-29), and ovarian (SK-OV-3 and OVCAR-3) were obtained from the American Type Culture Collection (ATCC) and cultured at 37° C. in a humidified 95% air/5% CO2 atmosphere in the medium recommended by ATCC.
(§3) In vitro cell viability. Cell viability was analyzed as follows: cancer cells including pancreatic (PANC-1 and CFPAC-1), lung (HCC827 and H460), stomach (NCI-N87 and KATOIII), urothelial (J82, RT4), prostatic (PC3) and breast (MX-1 and HCC 1806), colorectal (HT-29) and ovarian (SK-OV-3 and OVCAR-3) were grown on 96 well plates to ˜60% confluence, the cells were starved for 24 h in culture medium containing 0.5% FBS. Cells were then treated with GHRH antagonists MIA602 AVR compounds at concentrations of 1, 2.5 or 5 μM, or vehicle (0.1% DMSO) in quintuplicates for 72 hours. The medium was replaced every 48 hours. Cell viability was measured using CellTiter 96 aqueous one solution kit (Promega). Inhibitory effects of tested AVR compounds in comparison to that of MIA602 are presented as inhibitory potency.
Inhibitory effects of selected AVR compounds in comparison to that of MIA602 are presented as inhibitory potency (e.g., percentage of inhibition). […] The cell lines tested including lung cancer HCC827 (FIG. 2A), pancreatic cancer CFPAC-1 (FIG. 2B), stomach cancer N87 (FIG. 2C), colon cancer HT-29 (FIG. 2D), breast cancers MX-1 and HCC1806 (FIGS. 2 E, F). Based on the results of cell proliferation assay after cancer cells were treated with antagonist at concentration of 5 μM for 72H, the relative inhibitory potency of AVR antagonists in comparison to MIA-602 is summarized in Table 3 A and B. Over 60 AVR compounds were tested in 12 cancer cell lines.

Experiment [3] relates to mouse lung fibroblasts (Mlg 2908). Nature of the experiment: Cellular respiration, Seahorse XF Cell Mito Stress Test. It is filed as cell-based. How it is done: Lung fibroblasts. Newborn mouse lung fibroblasts (Mlg 2908) were obtained from the American Type Culture Collection, Manassas, Va. and cultured in Eagle's minimal essential medium. Cells were grown in 6-well plates before incubation with 1 or 5 μM MIA-602 or vehicle, RNA isolation, and oxygen consumption measurements.
Cellular respiration. The effects of MIA-602 on mouse lung fibroblast oxygen consumption was measured using the Agilent Seahorse XF Cell Mito Stress Test (Agilent Technologies, Santa Clara, Calif.) (Divakaruni A, Paradyse A, Ferrick D, Murphy A, Jastroch M (2014). Methods in Enzymology 547:309-354). Fibroblasts were incubated with vehicle, 1 or 5 μM MIA-602 for 24 hours before measurement of oxygen consumption. One day before assay 80,000 fibroblasts were seeded into Seahorse 24-well plates (n=6 wells per condition). Basal respiration was established and oligomycin, FCCP and rotenone plus antimycin A were added sequentially to measure ATP production, uncoupled respiration; and, non-mitochondrial oxygen consumption (Wangpaichitr, Wu C, Li Y, Nguyen D, Kandemir H, Shah S, Chen S, Feun L, Prince J, Kuo M, Savaraj N (2017). Oncotarget 8(30):49275-49292).

Experiment [4] relates to PC3 prostatic cancer cells. Nature of the experiment: In vitro cell viability, PC3. The experiment is classed as cell-based, human. Conditions: antagonist 5 μM for 72 h, cell proliferation assay; MIA602 = 1. How it is done:
as §1, §2, §3
Inhibitory effects of selected AVR compounds in comparison to that of MIA602 are presented as inhibitory potency (e.g., percentage of inhibition). […] The cell lines tested including lung cancer HCC827 (FIG. 2A), pancreatic cancer CFPAC-1 (FIG. 2B), stomach cancer N87 (FIG. 2C), colon cancer HT-29 (FIG. 2D), breast cancers MX-1 and HCC1806 (FIGS. 2 E, F). […]

The test system of experiment [5] is PAK1-STAT3/NF-κB in gastric cancer cells. To be noted: Gan et al. 2016; cited from earlier work.

Regarding `CCCC[C@H](NC(=O)[C@@H](NC(=O)[C@H](CC(=O)O)NC(=O)[C@H](CCC(N)=O)NC(=O)[C@H](CC(C)C)NC(=O)[C@H](CC(C)C)NC(=O)[C@H](CCCCN)NC(=O)[C@H](CCCNC(=N)N)NC(=O)[C@H](C)NC(=O)[C@H](CO)NC(=O)[C@H](CC(C)C)NC(=O)[C@H](CCC(N)=O)NC(=O)[C@H](CC)NC(=O)[C@H](CC(C)C)NC(=O)[C@@H](NC(=O)[C@H](CCCCN)NC(=O)[C@H](CCCNC(=N)N)NC(=O)[C@H](Cc1ccc(OC)cc1)NC(=O)[C@H](CCCCNC(=N)N)NC(=O)[C@H](C)NC(=O)[C@@H](NC(=O)[C@H](Cc1c(F)c(F)c(F)c(F)c1F)NC(=O)[C@@H](NC(=O)[C@H](C)NC(=O)[C@H](CC(=O)O)NC(=O)[C@@H](CCCNC(=N)N)NC(=O)[C@H](Cc1ccc(O)cc1)NC(=O)CCCCCCCCCCCNC(=O)Cc1c(F)c(F)c(F)c(F)c1F)[C@@H](C)CC)[C@@H](C)O)C(C)C)[C@@H](C)CC)C(=O)N[C@H](CCCNC(=N)N)C(=O)N[C@@H](CCCCNC(=N)N)C(=O)NC` [AVR-235] ({Phenylacetyl(2,3,4,5,6-F5)-12Ado}-Y[dR]DAI[Phe(F5)]TA[hArg]Y(Me)RKVL[Abu]QLSARKLLQDI[Nle][dR][hArg]-NHMe), the “relative inhibitory potency in comparison to MIA-602, Stomach KATOIII” value in experiment [1] was 1.220. Besides, in experiment [2], the “relative inhibitory potency in comparison to MIA-602, Pancreatic Panc-1” value stood at 1.139.

As for `CCCC[C@H](NC(=O)[C@@H](NC(=O)[C@H](CC(=O)O)NC(=O)[C@H](CCC(N)=O)NC(=O)[C@H](CC(C)C)NC(=O)[C@H](CC(C)C)NC(=O)[C@H](CCCN)NC(=O)[C@H](Cc1c[nH]cn1)NC(=O)[C@H](C)NC(=O)[C@H](CO)NC(=O)[C@H](CC(C)C)NC(=O)[C@H](CCC(N)=O)NC(=O)[C@H](CC)NC(=O)[C@H](CC(C)C)NC(=O)[C@@H](NC(=O)[C@H](CCCN)NC(=O)[C@H](Cc1c[nH]cn1)NC(=O)[C@H](Cc1ccc(OC)cc1)NC(=O)[C@H](CCCCNC(=N)N)NC(=O)[C@H](C)NC(=O)[C@@H](NC(=O)[C@H](Cc1c(F)c(F)c(F)c(F)c1F)NC(=O)[C@@H](NC(=O)[C@H](C)NC(=O)[C@H](CC(=O)O)NC(=O)[C@@H](CCCNC(=N)N)NC(=O)[C@H](Cc1ccc(O)cc1)NC(=O)CCCCCCCCCCCNC(=O)Cc1ccccc1)[C@@H](C)CC)[C@@H](C)O)C(C)C)[C@@H](C)CC)C(=O)N[C@H](CCCNC(=N)N)C(=O)N[C@@H](CCCCNC(=N)N)C(N)=O` [MIA-602, PhAC-Ada, Tyr D-Arg, Asp, Ala, Ile, 5FPhe, Thr, Ala, Har, Tyr(Me), His, Orn, Val, Leu, Abu, Gin, Leu, Ser, Ala, His, Om, Leu, Leu, Gin, Asp, Ile; Nle, D-Arg, Har NH2, reference compound] ({PhAc-12Ado}-Y[dR]DAI[Phe(F5)]TA[hArg]Y(Me)H[Orn]VL[Abu]QLSAH[Orn]LLQDI[Nle][dR][hArg]-NH2), in experiment [3] (5 μM for 24 hours, vs vehicle), the “basal respiration / basal oxygen consumption (in words)” value is reported as “increased”; the “maximal, uncoupled respiration (after FCCP) (in words)” value is “increased”; the “spare respiratory capacity (in words)” value is “increased”. Also, the “non-mitochondrial respiration (after antimycin A and rotenone) (in words)” value in experiment [3] (1 and 5 μM for 24 hours) is listed as “appeared to increase”. Also, the “relative inhibitory potency in comparison to MIA-602, Stomach KATOIII” value in experiment [1] worked out at 1. In addition, in experiment [4], the “relative inhibitory potency in comparison to MIA-602, Prostatic PC3” value is 1. Besides, in experiment [2], the “relative inhibitory potency in comparison to MIA-602, Pancreatic Panc-1” value worked out at 1. Further, in experiment [5], the “signaling pathways in gastric cancer cells (in words)” value is “downregulates p21 activated kinase and STAT3 and NFκB; also recorded: inhibits signaling pathways, including PAK1-STAT3/NF-κB”.
